The structures appear in SMILES notation.

Consider twelve compounds from patent US8420810B2, “Bicyclic heterocyclic compound” (Ono Pharmaceutical, Co., Ltd., priority 2007, dated 2013).

Data set [1] has as its target T1, human CRF receptor I (Homo sapiens, UniProt P34998).
T1 construct: expressed in transfected cells; host or cells: CHO-K1
T1 sequence (P34998 24-415): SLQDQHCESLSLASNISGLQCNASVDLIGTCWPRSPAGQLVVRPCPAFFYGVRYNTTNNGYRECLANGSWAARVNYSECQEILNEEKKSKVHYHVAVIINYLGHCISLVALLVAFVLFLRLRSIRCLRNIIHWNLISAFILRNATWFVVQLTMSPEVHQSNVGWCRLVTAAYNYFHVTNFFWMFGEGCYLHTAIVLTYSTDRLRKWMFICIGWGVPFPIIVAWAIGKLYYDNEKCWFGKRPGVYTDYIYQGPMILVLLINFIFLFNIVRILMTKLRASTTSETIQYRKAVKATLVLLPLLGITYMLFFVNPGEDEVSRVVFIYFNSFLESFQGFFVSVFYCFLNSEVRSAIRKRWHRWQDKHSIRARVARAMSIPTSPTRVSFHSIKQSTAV
Put plainly: Binding assay (125I-CRF, membrane fraction). Conditions: 125I-CRF 0.25 nM, membrane fraction of CHO-K1 cells expressing human CRF receptor I, room temperature 2 hours. The method, then: The forced-expression cell strain of the human CRF receptor I (parent strain is CHO-K1 cell) was cultured until the cell was confluent and collected with a scraper. The collected cells were washed twice with PBS, and were suspended with an ice-colded binding assay buffer (Tris-HCl (50 mM, pH 7.0), EDTA (2 mM, pH 8.0), and MgCl2 (10 mM)). After fractured with a dounce-type homogenizer, the suspended cells were centrifuged at 10,000 g, and a membrane fraction was collected. The collected membrane fraction was resuspended with a little amount of the binding assay buffer, thereafter diluted with the binding assay buffer so as to have a concentration of 1 mg/mL. The obtained membrane fraction was used for a binding assay.
^125I-CRF was diluted with the binding assay buffer so as to have a concentration of 0.5 nM, whereby 50 μL of the diluted ^125I-CRF was added to a siliconized 1.5 mL tube. Next, evaluation compounds diluted at appropriate times, DMSO (for general binding), or 100 μM of CRF (for non-specific binding), was added to a […]. Finally, 50 μL of the membrane fraction was added thereto and the reaction was started (final concentration of ^125I-CRF was 0.25 nM). The tube was incubated at room temperature for 2 hours. After the reaction, the tube was centrifuged at 20,000 g in order to collect the membrane fraction. The supernatant was discarded, and the pellet was washed with an ice-colded PBS/0.01% TritonX-100. A membrane binding count was measured using a y counter. The specific binding count was obtained by subtracting the non-specific count from the measured count.

For data set [2], the target named is T1, human CRF receptor I. Put plainly: Receptor antagonistic activity (cyclic AMP assay). In kind it is cell-based. Conditions: accumulated cyclic AMP, human/rat CRF stimulation, cells expressing human CRF receptor I, 37° C. 15 minutes. The method, then: The forced expression cell strain of the human CRF receptor I was cultured at 37° C. under 5% carbon dioxide and 95% air by using a Ham's F-12 medium (F-12 nutrient mixture) containing 10% bovine fetal serum and 1% antibiotic substance-antifungal agent. On the previous day before the cyclic AMP was measured, the cells were inoculated into a 96-well plate in an amount of 1×10^4 cell/well. On the measurement day, the cells were washed twice with a Ham's F-12 medium, whereby a solution of Ham's F-12 medium/1 mM 3-isobutyl-1-methylxanthine (assay medium) (178 μL) was added to each well. After the incubation at 37° C. for 15 minutes, the solutions (2 μL) of evaluation compound in various concentrations were added thereto, or DMSO (2 μL) was added to a CRF group and a blank group. An assay medium (20 μL) containing 10 nM human/rat CRF was added to wells of an evaluation compound group and the CRF group. An assay medium (20 μL) containing 0.00001% acetic acid was added to the blank group. Each group was further incubated at 37° C. for 15 minutes. The supernatant was removed and ice-colded to stop the reaction. Note that the reactions of 2 wells were the same in all reactions. The measurement for accumulated cyclic AMP amount in cells was carried out by using a cyclic AMP Biotrak enzyme immunoassay system (manufactured by GE Healthcare). The accumulated cyclic AMP amounts were calculated by subtracting mean values of corresponding 2 wells in the blank group from that of 2 wells. The IC50 values were calculated with non-linear regression analysis by defining logarithm concentration of the evaluation compound as independent variable and an accumulated cyclic AMP amount as dependent variable.

A further data set deals with SD rats. Put plainly: Elevated plus maze test with swim-stressed rat. In kind it is in vivo. Conditions: orally 1 hour before the test. The method, then: 2 open arms with the same lengths (50×10 cm) and 2 close arms (a 30 cm wall was provided) with the same lengths (50×10 cm) were arranged in orthogonal manner at a height of 50 cm from the floor to provide an elevated crossroad maze system. In 70 cm above the both open arms, white light was provided, whereby illuminance was maintained at constant.
SD rats of 7 weeks of age (CHARLES RIVER LABORATORIES JAPAN) were forcedly made to swim for 120 seconds in a pool (40×30×38 cm) at 22° C. of water temperature and 25 cm of water depth. After 9 minutes of soaking stress loading, the rat was put on the center of the system. The activity for 5 minutes of the rat was analyzed with an automatic activity-tracking analysis system (EthoVision Version 3.0, Noldus Information Technology) to calculate the dwell time (second) on the open arm.
Note that no soaking stress was loaded on the control group. In addition, 20% Wellsolve (registered trademark) (5 mL/kg) was orally administered to the vehicle group and evaluation compounds in various concentrations were orally administrated to the evaluation compound administration group 1 hour before the test.

A further data set concerns rats. Nature of the data set: Rat learned helplessness test. In kind it is in vivo. To be noted: oral, once a day for 6 days and 1 hour before the shock training. The method, then: The learned helplessness test was carried out using a two-way shuttle box which is partitioned into two by a gate which can be opened and closed so that travel to right and left becomes possible. On the 1st day of the learned helplessness test, rats were put into the device under un-escapable condition by closing the gate, and a total of 90 times of an electric shock (0.5 mA) was applied to them through a floor grid for 10 seconds at 2 seconds' intervals (shock training). Rats of the control group were left as they are for the same period of time (for 18 minutes) without applying the electric shock. After 24 hours of the shock training, rats were put into the device under escapable condition by opening the gate to carry out an escape test. After 5 minutes of acclimatization, a light stimulus and a sound stimulus (conditioning stimuli) were applied simultaneously for 5 seconds, and subsequent electric shock (un-conditioning stimulus) was applied for 10 seconds. This was regarded as one trial. A case of continuously receiving the electric shock without escape was regarded as escape failure. A total of 40 trials were carried out by setting the interval between respective trials to 5 seconds, and frequency of the escape failure was recorded.
In this connection, the vehicle (20% solvent) and evaluation compound were repeatedly administered once a day for 6 days and further orally administered 1 hour before the shock training.

Another data set can be described thus: Light stability test. In kind it is physicochemical. Conditions: 2500 Lux (D65 lamp), 25° C., HPLC. The method, then:
After weighing 5 mg of an evaluation compound, it was put into a test tube made of glass which was then sealed with a stop cock. Said test tube was stored at 25° C. for 11 days or 20 days under irradiation of 2500 Lux (a D65 lamp was used as the light source). The evaluation compound after 11 days or 20 days of irradiation was determined by an HPLC apparatus. Survival rate (%) of the evaluation compound was calculated by the following formula. Survival rate of evaluation compound (%)=amount of evaluation compound after 11 days or 20 days of irradiation (mg)/weighed value of evaluation compound (mg)×100 <HPLC Conditions> • Apparatus: A 1200 series (manufactured by Agilent Technologies, Inc.), • Column: YMC-Pack C4, A-802, 150×4.6 mm I.D., S-5 μm, 120 A (manufactured by YMC), • Mobile phase: A: water, B: acetonitrile, A/B: 35/65, • Column temperature: room temperature, • Flow rate: 1.0 mL/min.

With `CCN(CC)c1cc(C)n2nc(-c3ccc(OC)cc3Cl)n(C)c(=O)c12` [Example 65, 2-(2-chloro-4-methoxyphenyl)-5-(diethylamino)-3,7-dimethylpyrrolo[2,1-f][1,2,4]triazin-4(3H)-one], the figures for the IC50 at human CRF receptor I [1] and at human CRF receptor I [2] were 4.9 nM and 3.5 nM, respectively.

Take `CCn1c(-c2ccc(SC)cc2C)nn2c(C)cc(C(C)C)c2c1=O` [Example 23, 3-ethyl-5-isopropyl-7-methyl-2-[2-methyl-4-(methylthio)phenyl]pyrrolo[2,1-f][1,2,4]triazin-4(3H)-one]: in the data set with SD rats (10 mg/kg), the “mean dwell time on the open arm compared to that of the vehicle group” value was “favorably elongated”. The IC50 worked out at 11 nM on human CRF receptor I [1] and 9.6 nM at human CRF receptor I [2].

Take `CCCC(C)c1cc(C)n2nc(-c3ccc(SC)cc3Cl)n(C)c(=O)c12` (stereo not drawn) [Example 22, 2-[2-chloro-4-(methylthio)phenyl]-3,7-dimethyl-5-(1-methylbutyl)pyrrolo[2,1-f][1,2,4]triazin-4(3H)-one]: the “increase of the frequency of escape failure for the vehicle group” value (shortened to “increase”) in the data set with rats (3 mg/kg) is on record as “significantly inhibited”. Moreover, the half-maximal inhibitory concentration (IC50) on human CRF receptor I [1] was determined as 2.1 nM; against human CRF receptor I [2], 1.9 nM.

With `CCC(CC)c1cc(C)n2nc(-c3c(C)nc(N(C)C)nc3C)n(C)c(=O)c12` [8(27), 2-[2-(dimethylamino)-4,6-dimethyl-5-pyrimidinyl]-5-(1-ethylpropyl)-3,7-dimethylpyrrolo[2,1-f][1,2,4]triazin-4(3H)-one], the IC50 at human CRF receptor I [1] came to 14.7 nM; against human CRF receptor I [2], 9.4 nM.

Regarding `CCC(CC)c1cc(C)n2nc(-c3sc(N(C)C)nc3Cl)n(C)c(=O)c12` [8(48), 2-[4-chloro-2-(dimethylamino)-1,3-thiazol-5-yl]-5-(1-ethylpropyl)-3,7-dimethylpyrrolo[2,1-f][1,2,4]triazin-4(3H)-one], the 50% inhibitory concentration (IC50) was 7.2 nM at human CRF receptor I [1] and 1.2 nM against human CRF receptor I [2].

On to `CCC(CC)c1cc(C)n2nc(-c3ccc(OC)cc3C)n(CC(N)=O)c(=O)c12` [8(38), 2-[5-(1-ethylpropyl)-2-(4-methoxy-2-methylphenyl)-7-methyl-4-oxopyrrolo[2,1-f][1,2,4]triazin-3(4H)-yl]acetamide], for which the results for the IC50 at human CRF receptor I [1] and against human CRF receptor I [2] were 23.5 nM and 34.8 nM, respectively.

For the compound `CCc1cc(OC)ccc1-c1nn2c(C)cc(C(CC)CC)c2c(=O)n1C` [8(25), 2-(2-ethyl-4-methoxyphenyl)-5-(1-ethylpropyl)-3,7-dimethylpyrrolo[2,1-f][1,2,4]triazin-4(3H)-one], the “mean dwell time on the open arm compared to that of the vehicle group” value with SD rats is on record as “favorably elongated”. Also, the IC50 at human CRF receptor I [1] amounted to 3.6 nM; against human CRF receptor I [2], 1.7 nM.

In the case of `CCC(CC)c1cc(C)n2nc(-c3cnc(OC(F)F)cc3C)n(C)c(=O)c12` [Example 13, 2-[6-(difluoromethoxy)-4-methyl-3pyridinyl]-5-(1-ethylpropyl)-3,7-dimethylpyrrolo[2,1-f][1,2,4]triazin-4(3H)-one], the “increase” value in the data set with rats (3 mg/kg) was “significantly inhibited”. The IC50 at human CRF receptor I [1] came out at 5.3 nM; at human CRF receptor I [2] it was 3.2 nM.

Take `CCC(CC)c1cc(C)n2nc(-c3ccc(OC(F)(F)F)cc3Cl)n(C)c(=O)c12` [Example 8, 2-[2-chloro-4-(trifluoromethoxy)phenyl]-5-(1-ethylpropyl)-3,7-dimethylpyrrolo[2,1-f][1,2,4]triazin-4(3H)-one]: the “increase” value in the data set with rats (10 mg/kg) is recorded as “significantly inhibited”. Further, in the data set “Light stability test”, the “residual ratio after 20 days” value was 99%. Further, the “mean dwell time on the open arm compared to that of the vehicle group” value in the data set with SD rats (10 mg/kg) is recorded as “favorably elongated”. The concentration for half-maximal inhibition (IC50) turned out to be 6.1 nM at human CRF receptor I [1] and 1.8 nM against human CRF receptor I [2].

With `CCC(CC)c1cc(C)n2nc(-c3ncc(OC)cc3Cl)n(C)c(=O)c12` [Example 24(21), 2-(3-chloro-5-methoxy-2-pyridinyl)-5-(1-ethylpropyl)-3,7-dimethylpyrrolo[2,1-f][1,2,4]triazin-4(3H)-one], the “increase” value in the data set on rats (10 mg/kg) is “significantly inhibited”. Besides, the IC50 came to 5.2 nM on human CRF receptor I [1] and 5.8 nM against human CRF receptor I [2].

As for `CCCC(C)c1cc(C)n2nc(-c3cnc(OC(F)F)cc3C)n(C)c(=O)c12` (stereo not drawn) [28(10), 2-[6-(difluoromethoxy)-4-methyl-3-pyridinyl]-3,7-dimethyl-5-(1-methylbutyl)pyrrolo[2,1-f][1,2,4]triazin-4(3H)-one], the “mean dwell time on the open arm compared to that of the vehicle group” value with SD rats is reported as “favorably elongated”. The figures for the IC50 at human CRF receptor I [1] and against human CRF receptor I [2] were 20.7 nM and 17.1 nM, respectively.

Turning to `CCC(CC)c1cc(C)n2nc(-c3ccc(OC)cc3C)n(CCO)c(=O)c12` [8(44), 5-(1-ethylpropyl)-3-(2-hydroxyethyl)-2-(4-methoxy-2-methylphenyl)-7-methylpyrrolo[2,1-f][1,2,4]triazin-4(3H)-one], the IC50 at human CRF receptor I [1] turned out to be 7.8 nM; against human CRF receptor I [2] it was 4.2 nM.

A word on the IC50: it is the concentration that inhibits the measured activity by half. A higher IC50 goes with weaker potency in that assay.
